Source: patent publication US10959968B2, “Methods for treating c-Met-dependent cancers” (Board of Supervisors of Louisiana State University and …, priority 2016, dated 2021)

Assays:
[1] = biological target: TYRO3 (RSE) (Homo sapiens, UniProt Q06418); test: SelectScreen Kinase Profiling; assay type: biochemical; conditions: read-out: Mean inhibition at 10 μM of HVS (%)
[2] = system: MDA-MB231 spheroids; test: 3D spheroid growth, IncuCyte; assay type: cell-based, human; conditions: Homo sapiens, MDA-MB-231, 10 micromolar, up to 72 hours
Experimental: FIG. 9. (A). MDA-MB231 cells were grown in 10% FBS DMEM. Cells were collected after trypsinization and resuspended in phenol-red free DMEM with 10% FBS. Cells were labeled with CellTracker Red (Life Technologies) for 5 minutes. After labeling cells were washed with PBS and transfer into 96-well Corning 7007 ULA round bottom plates at 1,000 cells/well in 100 μl phenol-red free media with 10% FBS and 5% Matrigel. […] Spheroids were grown at 37° C. and 5% CO2 in IncuCyte ZOOM (Essen Bioscience). Images were acquired every 4 h for a period of 72 h post-treatment. The data were expressed as fold increase in spheroids size at the end of the treatment using the “average red object area in the well” as determined by the IncuCyte software analysis.
MDA-MB231 spheroids were all allowed to form and treated with compounds for up to 72 hours. Images were captured using the Incucyte platform.

[3] = system: T-47D breast cancer cells; test: HGF-stimulated growth of Met-independent cells, MTT assay; assay type: cell-based, human; conditions: similar treatment doses; 72 h
Experimental: FIG. 3. (A) Effect of HVS treatment on HGF-stimulated growth of Met-dependent MDA-MB-231, MDA-MB-468, MCF-7. and BT-474 breast cancer cells after 72 h treatment period, compared to DMSO as vehicle control. Viable cell count was determined using MTT assay. Vertical bars indicate the mean cell count±SEM of N=3 in each treatment group; (−)-oleocanthal was used as a positive control at 20 μM. (B) Effect of HVS treatment on HGF-stimulated growth of Met-independent T-47D breast cancer cells after 72 h treatment period. Viable cell count was determined using MTT assay. Vertical bars indicate the mean cell count±SEM of N=3 in each treatment group. (C) Cytotoxic effects of HVS on the highly metastatic MDA-MB-231 breast cancer cells at two different concentrations (30 and 60 μM) using LDH cytotoxicity assay. Triton X-100 was used as a positive control to cause the breakdown of all the cells and induce the total possible LDH release. (D) Effects of HVS treatment on the viability of non-tumorigenic human MCF10A mammary epithelial cells after a 24 h treatment period, compared to DMSO as vehicle control. (E) As in panel (A) but without HGF. […] Viable cell count was determined using MTT assay. Vertical bars indicate the mean cell count±SEM of N=3 in each treatment group; doxorubicin was used as a positive control at 10 μM dose. *P<0.05 as compared with vehicle treated control.
[…]. […]

[4] = system: DU145 human prostate cancer cells (pMet, pAkt, pErk); test: Western blot of HGF-induced signaling in prostate cancer cells; assay type: cell-based; conditions: 30 min pretreatment, 30 min HGF
Experimental: (§1) FIG. 4. A) Effect of HVS treatment on HGF-induced c-Met activation in human breast cancer cells using Western Blot analysis. Treatment with HVS caused a significant, dose-responsive inhibition of HGF-induced c-Met phosphorylation in MDA-MB-231, MCF-7, and BT-474 mammary tumor cells with no effect on total c-Met levels after treatment for 72 h, as compared to their respective vehicle-treated control groups. The visualization of β-tubulin was used as a loading control. (B) Effect of HVS on HGF-induced c-Met activation and its downstream mitogenic signaling in DU145 human prostate cancer cells, as compared to vehicle-treated control group, using Western Blot analysis. Cells were pre-treated for 30 minutes with either HVS at 0.1, 0.3, 1, and 5 μM or (−)-oleocanthal at 5, 10, and 20 μM doses in serum-free 0.4-media. 33 ng/mL HGF was then added for 30 minutes. Whole cell lysates were collected and assayed by Western Blot. The visualization of α-tubulin was used as a loading control. Representative Western Blots from each experiment are shown, N=3.
DU145 prostate tumor cells were pretreated for 30 minutes with the indicated compounds. Following pretreatment, cells were pulsed for thirty minutes with HGF, cell lysates were prepared and western blot analysis was performed to identify pMet, pAkt, pErk and tubulin.

[5] = system: MDA-MB-231 breast cancer cells; test: Western blot of c-Met downstream mitogenic and FAK/Brk/paxillin/Rac1 signaling; assay type: cell-based, human
Experimental: FIG. 5. Effects of HVS treatment on c-Met downstream mitogenic and FAK/Brk/paxillin/Rac1 signaling pathways in human MDA-MB-231 breast cancer cells after a treatment period of 72 h. (A) Western Blot analysis showing HVS treatment effects on c-Met downstream mitogenic signaling molecules, Akt and MAPK, using different treatment doses, compared to the vehicle-treated control group. (B) Western Blot analysis showing HVS treatment effects on FAK/Brk/Paxillin/Rac1 signaling pathway using different treatment doses, compared to the vehicle-treated control group. The visualization of β-tubulin was used as a loading control. Representative Western Blots from each experiment are shown, N=3.
On the other hand, HVS had little or no effects on the total levels of FAK, Brk, paxillin, and Rac1 in treated cells. Exposure to antiproliferative concentrations of 8 blocked HGF-induced phosphorylation and activation of Akt and MAPK in MDA-MB-231 mammary cancer cells (FIG. 5). Activation of c-Met prevents apoptosis and maintains cancer cell survival through activation of PI3K and subsequent Akt-NFκB activation.

[6] = system: c-Met phosphorylation in MDA-MB-231, MCF-7, and BT-474 mammary tumor cells; test: Western blot of HGF-induced c-Met activation in breast cancer cells; assay type: cell-based, human
Experimental: as §1, with “Treatment with HVS caused a significant, dose-responsive inhibition of HGF-induced c-Met phosphorylation in MDA-MB-231, MCF-7, and BT-474 mammary tumor cells with no effect on total c-Met levels after treatment for 72 h, as compared to their respective vehicle-treated control groups.” left out
Activation of c-Met prevents apoptosis and maintains cancer cell survival through activation of PI3K and subsequent Akt-NFκB activation.

Chain of TYRO3 (RSE) (Q06418 41-890): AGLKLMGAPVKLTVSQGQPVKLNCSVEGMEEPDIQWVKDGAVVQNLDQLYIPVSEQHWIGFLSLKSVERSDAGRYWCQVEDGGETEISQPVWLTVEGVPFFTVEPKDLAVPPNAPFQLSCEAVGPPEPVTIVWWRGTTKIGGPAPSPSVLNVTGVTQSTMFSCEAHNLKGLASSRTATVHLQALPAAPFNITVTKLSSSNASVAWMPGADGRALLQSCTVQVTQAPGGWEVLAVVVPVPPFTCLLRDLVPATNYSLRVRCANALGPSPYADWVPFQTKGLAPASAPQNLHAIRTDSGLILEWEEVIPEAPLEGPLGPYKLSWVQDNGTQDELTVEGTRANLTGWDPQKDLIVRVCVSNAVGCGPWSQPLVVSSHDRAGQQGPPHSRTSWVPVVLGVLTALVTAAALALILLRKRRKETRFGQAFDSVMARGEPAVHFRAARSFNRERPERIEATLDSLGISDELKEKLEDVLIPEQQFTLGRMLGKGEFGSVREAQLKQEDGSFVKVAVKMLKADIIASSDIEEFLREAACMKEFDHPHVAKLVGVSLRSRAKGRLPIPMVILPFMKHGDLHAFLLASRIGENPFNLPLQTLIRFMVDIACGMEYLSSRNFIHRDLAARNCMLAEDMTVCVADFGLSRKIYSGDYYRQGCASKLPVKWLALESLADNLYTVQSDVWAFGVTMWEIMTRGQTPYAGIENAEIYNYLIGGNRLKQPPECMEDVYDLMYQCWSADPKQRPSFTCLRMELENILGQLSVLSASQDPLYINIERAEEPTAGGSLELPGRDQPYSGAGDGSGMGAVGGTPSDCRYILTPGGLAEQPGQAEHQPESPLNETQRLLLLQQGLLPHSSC

## COc1cc(CCOC(=O)/C=C/c2cc(OC)c(O)c(OC)c2)ccc1O [Compound 8, (E)-4-hydroxy-3-methoxyph-ethyl 3-(4-hydroxy-3,5-dimethoxyphenyl) acrylate]
[1]
  inhibition at 10 µM: 21%
[2]
  inhibition at 10 µM: 80%
[3]
  effect on T47-D cells which lack c-Met: no discernable effects
[4]
  HGF-induced (Met dependent) signaling: effective even at submicromolar concentrations
[5]; 72-h treatment
  FAK, Brk, paxillin and Rac1 phosphorylation (activation): dose-dependently suppressed
[5]; antiproliferative concentrations
  HGF-induced phosphorylation and activation of Akt and MAPK: blocked
[6]; 72 h treatment
  HGF-induced c-Met phosphorylation: significant inhibition
[6]; at the tested concentrations
  total c-Met levels: did not affect
